This test has as its target T1, KHK (Homo sapiens, UniProt P50053).
T1 construct: (His)6 tag (N); thrombin cleavage site (N); made in house; host or cells: E. coli BL-21 (DE3)
T1 sequence (P50053 1-298): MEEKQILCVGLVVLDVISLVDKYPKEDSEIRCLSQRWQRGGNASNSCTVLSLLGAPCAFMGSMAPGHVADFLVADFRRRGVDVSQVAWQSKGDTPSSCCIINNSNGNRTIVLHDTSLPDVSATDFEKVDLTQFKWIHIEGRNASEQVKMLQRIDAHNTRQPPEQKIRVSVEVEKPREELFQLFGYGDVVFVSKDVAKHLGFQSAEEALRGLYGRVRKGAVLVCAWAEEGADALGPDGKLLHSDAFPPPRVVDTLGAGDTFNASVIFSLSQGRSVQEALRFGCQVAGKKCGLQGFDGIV
The test is described as follows: coupled enzyme assay for KHK activity. It is filed as biochemical. To be noted: purified human recombinant KHK, PK/LDH coupled assay, A340 at 25° C., 0.1 mM ATP, 0.2 mM fructose; isoform (KHK-C or KHK-A) not given. The text has this: Specific coupled enzyme screening assays were developed for KHK-C and KHK-A using recombinant proteins. Purified human recombinant KHK-C and KHK-A were produced using by expression in E. coli BL-21 (DE3) using IPTG induction as a His-tagged fusion proteins and purified using Ni-NTA chromatography on His-Trap FF columns. For KHK-C, the coding region from NCBI refseq number NM_006488 was inserted at the Nde I site of pET28a(+) vector, which puts it downstream from an amino-terminal (His)6 tag and a thrombin cleavage site. The same was done for KHK-A using the coding regions from NCBI refseq number NM_000221.2. The protein was expressed in BL-21 (DE3) using IPTG induction and purified using Ni-NTA (GE His Trap FF) column. The protein was washed with 100 column volumes, eluted with 3 column volumes, and dialyzed with HEPES, pH 7.4 buffers containing 20, 500, and 0 mM imidazole, respectively. The dialysate was concentrated by ultrafiltration (10kD MWCO) to >15 mg/mL protein. The protein prep was >95% pure on SDS-PAGE and the molecular weight was confirmed by relative mobility to be 33,730 Da (34,826 expected).
The assay uses the product of the KHK reaction, ADP, to drive a signal measured in real time for measuring the reaction rate. This consists of a 3-step, coupled-enzyme process by which pyruvate kinase (PK), which converts the ADP from the KHK reaction along with phosphoenolpyruvate (PEP) to ATP and pyruvate, respectively. The pyruvate is converted along with NADH to lactate and NAD+ by lactate dehydrogenase (LDH). The disappearance of NADH is measured kinetically by monitoring A340 at 25° C. for 15 minutes. The enzymatic assay was carried out in a total reaction volume of 200 μL containing 33 mM triethanolamine-HCl, pH 7.4, 6 mM MgCl2, 100 mM KCl, 0.1 mM ATP, 1.33 mM PEP, 0.3 mM NADH, 0.2-1.0 U of PK, 0.2-1.0 U of LDH, and 150-240 nM KHK-C or KHK-A (0.01-0.02 U). Fructose was added to initiate the reactions to 0.2 mM, except for the no fructose controls which utilized water. This high-throughput assay was used to identify inhibitors that have an IC50 value<1 μM for KHK-C and to confirm that those values for KHK-A were not more than 2-fold lower.

Where a name gives a salt, the structure may show the parent alone.

Here are results for 30 compounds from US20220194939A1, “Novel compounds and methods of use treating fructose-related disorders or diseases” (Colorado Research Partners, LLC, priority 2019, published 2022).

For the compound `Cc1cccc(-n2ncc3ccc(NC(=O)[C@@H](N)CCO)cc32)c1` [Compound 10, (S)-2-amino-4-hydroxy-N-(1-(m-tolyl)-1H-indazol-6-yl)butanamide hydrochloride], the concentration for half-maximal inhibition (IC50) was found to be 0.4 µM. The same measure for `Cc1cccc(-n2ncc3ccc(NC(=O)[C@H](N)CCO)cc32)c1` [Compound 12, (R)-2-amino-4-hydroxy-N-(1-(m-tolyl)-1H-indazol-6-yl)butanamide hydrochloride]: 0.86 µM; for `CCc1nn(-c2cccc(C)c2)c2cc(NC(=O)[C@@H](N)CO)ccc12` [Compound 43, (S)-2-amino-N-(3-ethyl-1-(m-tolyl)-1H-indazol-6-yl)-3-hydroxypropanamide hydrochloride]: 1.86 µM; for `Cc1cccc(-n2ncc3ccc(NC(=O)[C@@H](N)[C@@H](C)O)cc32)c1` [Compound 20, (2S,3R)-2-amino-3-hydroxy-N-(1-(m-tolyl)-1H-indazol-6-yl)butanamide hydrochloride]: 0.72 µM.

Consider `Cc1cccc(-n2ncc3ccc(NC(=O)C(CN)C(C)C)cc32)c1` (stereo not drawn) [Compound 8, 2-(aminomethyl)-3-methyl-N-(1-(m-tolyl)-1H-indazol-6-yl)butanamide hydrochloride], for which the IC50 came to 4.9 µM. The same measure for `CCOC(=O)N[C@@H](COC(=O)c1cccnc1)C(=O)Nc1ccc2cnn(-c3cccc(C)c3)c2c1` [Compound 32, (S)-2-((ethyloxycarbonyl)amino)-3-oxo-3-((1-(m-tolyl)-1H-indazol-6-yl)amino)propyl nicotinate]: greater than 1000 µM. In the case of `Cc1cccc(-n2ncc3ccc(NC(=O)[C@H](CO)NC(=O)OC(C)C)cc32)c1` [Compound 37, (S)-isopropyl (3-hydroxy-1-oxo-1-((1-(m-tolyl)-1H-indazol-6-yl)amino)propan-2-yl)carbamate], the 50% inhibitory concentration (IC50) stood at 4 µM. The same measure for `CCOC(=O)N[C@@H](COC(C)=O)C(=O)Nc1ccc2cnn(-c3cccc(C)c3)c2c1` [Compound 30, (S)-2-((ethyloxycarbonyl)amino)-3-oxo-3-((1-(m-tolyl)-1H-indazol-6-yl)amino)propyl acetate]: 24 µM. The same measure for `Cc1cccc(-n2ncc3ccc(NC(=O)[C@@H](N)CO)cc32)c1` [Compound 3, (S)-2-amino-3-hydroxy-N-(1-(m-tolyl)-1H-indazol-6-yl)propanamide hydrochloride]: 0.04 µM; for `CCCCCCCC(=O)OC[C@H](N)C(=O)Nc1ccc2cnn(-c3cccc(C)c3)c2c1` [Compound 24, (S)-2-amino-3-oxo-3-((1-(m-tolyl)-1H-indazol-6-yl)amino)propyl octanoate hydrochloride]: 12 µM.

Take `Cc1cccc(-n2ncc3ccc(NC(=O)C[C@H](N)CO)cc32)c1` [Compound 11, (S)-3-amino-4-hydroxy-N-(1-(m-tolyl)-1H-indazol-6-yl)butanamide hydrochloride]: the IC50 came to 1.2 µM. The result for `CCCCCCCC(=O)OC[C@H](N)C(=O)Nc1cc(F)c2cnn(-c3cccc(C)c3)c2c1` [Compound 26, (S)-2-amino-3-((4-fluoro-1-(m-tolyl)-1H-indazol-6-yl)amino)-3-oxopropyl octanoate hydrochloride] reads 8 µM; that for `Cc1cccc(-n2nc(C(F)F)c3ccc(NC(=O)[C@@H](N)CO)cc32)c1` [Compound 48, (S)-2-amino-N-(3-(difluoromethyl)-1-(m-tolyl)-1H-indazol-6-yl)-3-hydroxypropanamide hydrochloride], 0.46 µM.

In the case of `Cc1cccc(-n2ncc3ccc(NC(=O)C(N)C(=O)O)cc32)c1` (stereo not drawn) [Compound 39, 2-amino-3-oxo-3-((1-(m-tolyl)-1H-indazol-6-yl)amino)propanoic acid hydrochloride], the half-inhibitory concentration (IC50) is 0.7 µM. The result for `Cc1cccc(-n2ncc3cc(C)c(NC(=O)[C@@H](N)CO)cc32)c1` [Compound 42, (S)-2-amino-3-hydroxy-N-(5-methyl-1-(m-tolyl)-1H-indazol-6-yl)propanamide hydrochloride] reads 1.8 µM; that for `Cc1cccc(-n2ncc3ccc(NC(=O)[C@H](N)CN)cc32)c1` [Compound 14, (R)-2,3-diamino-N-(1-(m-tolyl)-1H-indazol-6-yl)propanamide dihydrochloride], 1.1 µM. The result for `CCc1nn(-c2cccc(C)c2)c2cc(NC(=O)[C@@H](N)CO)c(C)cc12` [Compound 46, (S)-2-amino-N-(3-ethyl-5-methyl-1-(m-tolyl)-1H-indazol-6-yl)-3-hydroxypropanamide hydrochloride] reads 1.9 µM; that for `Cc1cccc(-n2ncc3ccc(NC(=O)[C@H](CN)CO)cc32)c1` [Compound 4, (R)-3-amino-2-(hydroxymethyl)-N-(1-(m-tolyl)-1H-indazol-6-yl)propanamide hydrochloride], 0.62 µM. On to `Cc1cccc(-n2ncc3ccc(NC(=O)[C@H]4C[C@@H](N)C4)cc32)c1` [Compound 16, (cis)-3-amino-N-(1-(m-tolyl)-1H-indazol-6-yl)cyclobutanecarboxamide hydrochloride], for which the IC50 is 0.6 µM. For `Cc1cccc(-n2ncc3ccc(NC(=O)[C@@H](N)[C@H](C)O)cc32)c1` [Compound 17, (2S,3S)-2-amino-3-hydroxy-N-(1-(m-tolyl)-1H-indazol-6-yl)butanamide hydrochloride], the 50% inhibitory concentration (IC50) turned out to be 7 µM.

As to `Cc1cccc(-n2ncc3ccc(NC(=O)C(N)C(N)=O)cc32)c1` (stereo not drawn) [Compound 38, 2-amino-N1-(1-(m-tolyl)-1H-indazol-6-yl)malonamide hydrochloride], the IC50 was 1.4 µM. The result for `Cc1cccc(-n2ncc3c(F)cc(NC(=O)[C@@H](N)CO)cc32)c1` [Compound 23, (S)-2-amino-N-(4-fluoro-1-(m-tolyl)-1H-indazol-6-yl)-3-hydroxypropanamide hydrochloride] reads 0.024 µM; that for `Cc1cccc(-n2ncc3ccc(NC(=O)[C@@H](N)CCN)cc32)c1` [Compound 13, (S)-2,4-diamino-N-(1-(m-tolyl)-1H-indazol-6-yl)butanamide], 0.35 µM; that for `CCCCCCCC(=O)OC[C@H](NC(=O)OC(C)C)C(=O)Nc1ccc2cnn(-c3cccc(C)c3)c2c1` [Compound 35, (S)-2-((isoproxycarbonyl)amino)-3-oxo-3-((1-(m-tolyl)-1H-indazol-6-yl)amino)propyl octanoate], 200 µM.

On to `Cc1cccc(-n2ncc3ccc(NC(=O)[C@@H](N)COC(=O)c4cccnc4)cc32)c1` [Compound 25, (S)-2-amino-3-oxo-3-((1-(m-tolyl)-1H-indazol-6-yl)amino)propyl nicotinate hydrochloride], for which the concentration for half-maximal inhibition (IC50) was greater than 1000 µM. Consider `Cc1cccc(-n2ncc3ccc(NC(=O)[C@H](COC(=O)c4cccnc4)NC(=O)OC(C)C)cc32)c1` [Compound 33, (S)-2-((isopropoxycarbonyl)amino)-3-oxo-3-((1-(m-tolyl)-1H-indazol-6-yl)amino)propyl nicotinate], for which the IC50 is greater than 1000 µM.

For the compound `Cc1cccc(-n2ncc3ccc(NC(=O)[C@@](C)(N)CO)cc32)c1` [Compound 22, (S)-2-amino-3-hydroxy-2-methyl-N-(1-(m-tolyl)-1H-indazol-6-yl)propanamide hydrochloride], the IC50 was 0.42 µM. The same measure for `Cc1cccc(-n2ncc3ccc(NC(=O)[C@@H](C)N)cc32)c1` [Compound 7, (R)-2-amino-N-(1-(m-tolyl)-1H-indazol-6-yl)propanamide hydrochloride]: 0.27 µM; for `Cc1cccc(-n2ncc3ccc(NC(=O)[C@H]4CC[C@@H]4N)cc32)c1` (relative stereo) [Compound 9, trans-2-amino-N-(1-(m-tolyl)-1H-indazol-6-yl)cyclobutanecarboxamide hydrochloride]: 0.67 µM. The result for `CC(=O)OC[C@H](N)C(=O)Nc1ccc2cnn(-c3cccc(C)c3)c2c1` [Compound 41, (S)-2-amino-3-oxo-3-((1-(m-tolyl)-1H-indazol-6-yl)amino)propyl acetate hydrochloride] reads 2.7 µM.
